What was measured:
[1] = tested on: Vancomycin-resistant Enterococcus faecalis (VRE); assay: CLSI Vancomycin disk-diffusion test; type: cell-based; conditions: VRE ATCC 51575; CLSI Vancomycin resistant range: ≦14 mm
Candida albicans = assay: MIC/MBC susceptibility test, microdilution broth method; type: cell-based; conditions: Candida albicans ATCC 10231, 27° C. for 48 hours, 9.75 × 10^5 CFU/ml
Experimental: (§1) Susceptibility of various microorganisms to gallium was tested by determining the minimum inhibitory concentration (MIC) and minimum bactericidal concentration (MBC) for each microorganism using gallium nitrate. In general, MIC is determined by (i) mixing a series of broths, each containing a standard number of microorganisms, with serially diluted solutions of the gallium compound; and (ii) determining the MIC, after incubation, that is the lowest concentration of the gallium compound that inhibits the growth of the microorganism. The lower the MIC, the more susceptible the organism is. The MBC is determined by subculturing an aliquot of each sample from the MIC test on an appropriate agar plate containing no gallium compound.
(§2) Specifically, in the present experiment, two grams of gallium nitrate powder were dissolved in 10 ml of filter-sterilized deionized water and the resulting 20% (w/v) (i.e., 200 mg/ml) solution was once again filter-sterilized. Two-fold serial dilutions were prepared in sterile deionized water down to 0.156% (i.e., 1.56 mg/ml) for the tests for most of the organisms, except for the test for Candida albicans, in which 10%, 1%, 0.5%, 0.1%, 0.05%, 0.01%, 0.005% and 0.001% of gallium nitrate solutions were prepared.
(§3) All organisms were obtained from the American Type Culture Collection (ATCC), Manassas, Va. Each microorganism was picked from the seed culture (see Table 1) and inoculated in an appropriate type of broth to obtain a 0.5 McFarland turbidity standard. The standard suspension of the microorganism was then diluted to 1:100 with the broth and used for the tests.
(§4) Each microorganism was tested in duplicate by either a microdilution broth method in 96-well plates (i.e., 0.1 ml of the gallium nitrate solution mixed with 0.1 ml of the microorganism suspension) or a macrodilution broth method in test tubes (i.e., 1 ml of the gallium nitrate solution mixed with 1 ml of the microorganism suspension) as follows:
(§5) Microdilution broth method: Candida albicans; Escherichia coli O157:H7; and Campylobacter jejuni.
(§6) The growth of the microorganisms were determined by visual observation of turbidity in the samples.
(§7) To determine MBC, 10 μl of each sample used in MIC were inoculated onto an appropriate agar plate and incubated.

Campylobacter jejuni = assay: as above; type: cell-based; conditions: Campylobacter jejuni ATCC 29428; Tryptic soy agar with 5% sheep blood; 36° C. for 48 hours; 4.9 × 10^5 CFU/ml
Experimental: as §1, §2, §3, §4, §5, §6, §7

Escherichia coli O157:H7 = assay: as above; type: cell-based; conditions: E. coli O157:H7 ATCC 35150; Tryptic soy agar with 5% sheep blood; 36° C. for 48 hours; 1.38 × 10^6 CFU/ml
Experimental: as §1, §2, §3, §4, §5, §6, §7

[2] = healthy adults; intravenous infusion for at least 7 days; from U.S. Pat. No. 6,203,822; cited from earlier work
Salmonella typhi = assay: MIC/MBC susceptibility test, macrodilution broth method; type: cell-based; conditions: Salmonella typhi ATCC 6539; Tryptic soy agar with 5% sheep blood; 36° C. for 48 hours; 8.3 × 10^5 CFU/ml
Experimental: as §1, §2, §3
as §4, with “follows: […]” for “follows:”
(§8) The growth of the microorganisms were determined by visual observation of turbidity in the samples. […]

[3] = tested on: Methicillin-resistant Staphylococcus aureus (MRSA); assay: as above; type: cell-based; conditions: MRSA ATCC 33592; Tryptic soy agar with 5% sheep blood; 36° C. for 48 hours; 5.2 × 10^5 CFU/ml
Experimental: as §1, §2, §3
as §4, with “follows: […]” for “follows:”
as §8

[4] = tested on: Vancomycin-resistant Enterococcus faecalis (VRE); assay: as above; type: cell-based; conditions: VRE ATCC 51575; Tryptic soy agar with 5% sheep blood; 36° C. for 48 hours; 3.9 × 10^5 CFU/ml
Experimental: as §1, §2, §3
as §4, with “follows: […]” for “follows:”
as §8

Compound: CN[C@H](CC(C)C)C(=O)N[C@H]1C(=O)N[C@@H](CC(N)=O)C(=O)N[C@H]2C(=O)N[C@H]3C(=O)N[C@H](C(=O)N[C@H](C(=O)O)c4cc(O)cc(O)c4-c4cc3ccc4O)[C@H](O)c3ccc(c(Cl)c3)Oc3cc2cc(c3O[C@@H]2O[C@H](CO)[C@@H](O)[C@H](O)[C@H]2O[C@H]2C[C@](C)(N)[C@H](O)[C@H](C)O2)Oc2ccc(cc2Cl)[C@H]1O [Vancomycin]
- zone of inhibition [1]: ^bAntibiotics resistance of the organism was confirmed by CLSI Vancomycin disk-diffusion test. The zone of inhibition was 10 mm (CLSI Vancomycin resistant range: ≦14 mm).

Compound: O=[N+]([O-])[O-].O=[N+]([O-])[O-].O=[N+]([O-])[O-].[Ga+3] [gallium nitrate]
- MIC (Candida albicans; Sabouraud Dextrose broth): 10000 µg/mL
- MBC (Candida albicans; Sabouraud dextrose agar): >100000 µg/mL
- MBC (Campylobacter jejuni): <780 µg/mL
- MBC (Escherichia coli O157:H7): 6250 µg/mL
- tolerated dose [2]: at least 200 mg/m^2/day
- MBC (Salmonella typhi): 6250 µg/mL
- MBC [3]: 12500 µg/mL
- MBC [4]: 25000 µg/mL

Reference: patent publication US8895077B2, “Methods for preventing or treating infectious diseases caused by extracellular microorganisms, including antimicrobial-resistant strains thereof, using gallium compounds” (priority 2007, dated 2014)
